Data set [1] in a line: Plasma pharmacokinetics in mouse. Format: in vivo, female Balb/c mouse. Conditions: for AUC(0-t): read-out: AUC0-24 (converted). Here is the method: To investigate the relationship between anticryptosporidial activity and systemic exposure the plasma pharmacokinetics for NZ-369 were measured. […] The pharmacokinetics of NZ-369 following single intravenous (IV) and oral administration (PO) at 3 and 10 mg free base/kg respectively to the female Balb/c mouse.

Data set [2] concerns Cryptosporidium parvum (CP). The data set is described as follows: Cell culture model of Cryptosporidium parvum infection in HCT-8 cells, real-time qRT-PCR. Format: cell-based. The settings on record: Cryptosporidium parvum. In a few lines: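 HCT-8 monolayers were infected with C. parvum Iowa oocysts (1.5×10^4/well) for 3 h, then compounds were added after medium exchange and cells were incubated 41 h more (44 h total, 37 °C). Parasite Cp18S rRNA was measured by one-step SYBR qRT-PCR of lysates, normalized to host Hs18S, and % inhibition at the stated µM was derived from a standard curve.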
On the technique in general: Real-time PCR tracks product formation cycle by cycle.

Data set [3] in a line: Plasma protein binding. Format: in vitro ADME. Conditions: mouse, mice, read-out: PPB (converted).
In data set [4] the target is Human ether-a-go-go-related gene (hERG) (Homo sapiens, UniProt Q12809). The data set is described as follows: hERG test (potential cardiotoxicity). Format: biochemical. Conditions: read-out: hERG (Abbvie).
In data set [5] the test system is CP. Nature of the data set: Calf study of CP infection. Type of data set: in vivo, calves. Here is the method: New born calves are susceptible to CP infection. They can develop severe diarrhea like humans. Calves were inoculated with 5×10^7 CP oocysts/calf on day 0. Calves had diarrhea in both the groups at onset of dosing. Treatment was started on day 3. Calves were given NZ-369 @ 8.5 mg/kg every 12 hrs for 5 days. Fecal volume, urine volume, daily clinical evaluation, fecal consistency scores and weight gains were evaluated.

The nature of data set [6]: MCLint in vitro intrinsic clearance, mouse (MLM). Format: in vitro ADME.
[7] abbreviates: female, Balb/c, mouse, plasma, 3 mg/kg, IV 3 mg free base/kg, single dose.
Where [8] appears, read: female, Balb/c, mouse, plasma, 10 mg/kg, PO 10 mg free base/kg, single dose.

Values after ≈ are worked out from the molar mass of the structure shown. Like-named read-outs stand apart in the source and are kept apart here.

In general, half-life refers to the time in which the quantity being followed falls by half. Low readings indicate fast loss, high ones slow loss. As a reminder, the Cmax is the peak of the concentration-time curve. One may read the Tmax as the time from dosing to the highest level. By bioavailability is commonly meant dose-corrected exposure relative to a reference, in per cent. In general, MIC50 refers to the lowest concentration that inhibits either 50% of growth or 50% of the strains tested, depending on the study.

Sequence of Human ether-a-go-go-related gene (hERG) (Q12809 whole entry): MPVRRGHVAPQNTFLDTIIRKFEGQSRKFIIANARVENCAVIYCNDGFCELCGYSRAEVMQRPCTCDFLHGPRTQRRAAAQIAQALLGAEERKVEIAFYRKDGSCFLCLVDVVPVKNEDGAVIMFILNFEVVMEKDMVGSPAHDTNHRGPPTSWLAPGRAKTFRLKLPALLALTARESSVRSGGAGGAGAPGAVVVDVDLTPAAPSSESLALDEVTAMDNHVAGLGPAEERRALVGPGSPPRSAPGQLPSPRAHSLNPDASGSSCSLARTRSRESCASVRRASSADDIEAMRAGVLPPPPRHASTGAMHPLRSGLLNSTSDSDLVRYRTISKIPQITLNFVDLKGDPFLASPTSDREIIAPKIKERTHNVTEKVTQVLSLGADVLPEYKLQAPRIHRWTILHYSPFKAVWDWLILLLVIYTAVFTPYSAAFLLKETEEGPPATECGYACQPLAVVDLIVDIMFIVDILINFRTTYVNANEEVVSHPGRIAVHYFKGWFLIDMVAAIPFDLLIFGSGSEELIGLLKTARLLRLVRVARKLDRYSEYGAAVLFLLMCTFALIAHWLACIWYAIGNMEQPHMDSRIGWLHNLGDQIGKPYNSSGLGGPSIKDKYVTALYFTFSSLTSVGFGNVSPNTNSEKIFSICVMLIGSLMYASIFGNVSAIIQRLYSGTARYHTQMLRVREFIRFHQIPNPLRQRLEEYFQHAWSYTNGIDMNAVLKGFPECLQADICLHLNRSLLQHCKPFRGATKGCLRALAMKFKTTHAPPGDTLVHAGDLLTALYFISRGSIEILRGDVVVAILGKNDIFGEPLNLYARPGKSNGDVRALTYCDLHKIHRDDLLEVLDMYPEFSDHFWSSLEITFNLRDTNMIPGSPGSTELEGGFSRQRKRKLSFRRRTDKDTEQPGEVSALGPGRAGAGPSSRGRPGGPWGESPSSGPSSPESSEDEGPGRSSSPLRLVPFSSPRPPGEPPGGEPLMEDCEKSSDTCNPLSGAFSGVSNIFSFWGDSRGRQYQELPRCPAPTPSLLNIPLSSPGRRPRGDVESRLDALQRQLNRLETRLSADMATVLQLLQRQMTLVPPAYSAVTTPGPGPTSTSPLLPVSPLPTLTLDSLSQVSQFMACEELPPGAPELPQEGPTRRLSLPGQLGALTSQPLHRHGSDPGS

Regarding `CNC(=O)C(C)c1ccc(Oc2nc3ccc(Cl)cc3s2)cc1` (stereo not shown) [NZ-369, 2-{4-[(6-chloro-1,3-benzothiazol-2-yl)oxy]phenyl}-N-methylpropanamide], the “Clb” value in data set [1] (IV 3 mg free base/kg, single dose) came out at 6.6 mL/min/kg. In addition, in data set [1] (setting [7]), the half-life is 3.4 h and the AUC(0-t) is 7540 ng·h/mL. Further, in data set [1] (female, Balb/c, mouse, plasma, 3 mg/kg, IV 3 mg free base/kg, single dose, read-out: Vdss), the Vd was 1.7 L/kg. Further, in data set [1] (setting [8]), the Cmax worked out at 2160 ng/mL, the Tmax amounted to 2 h and the AUC(0-t) is 19800 ng·h/mL. The same molecule displayed a bioavailability in data set [1] (female, Balb/c, mouse, plasma, 10 mg/kg, printed in the IV column, PO 10 vs IV 3 mg free base/kg) of 78.8%. Besides, the “systemic pharmacokinetics (in words)” value in data set [1] (plasma) is listed as “excellent systemic pharmacokinetics”. Besides, the MIC50 in data set [2] (44 h, CP in HCT-8 cells, 44 h infection, 50% reduction of parasite growth vs control, NA: not active, read-out: MIC50) is 50 to 80 nM (≈ 0.0173 to 0.0277 µg/mL). In addition, the MIC50 in data set [2] (read-out: MIC50 (nM) (CP)) turned out to be 80 nM (≈ 0.0277 µg/mL). In addition, the fraction unbound in data set [3] was 0.015. Moreover, the IC50 in data set [4] was more than 30 µM. Besides, the “fecal volume vs control” value in data set [5] (8.5 mg/kg every 12 hrs for 5 days from day 3, through day 8 post infection, FIG. 2) is listed as “marked reduction in fecal volume”. Besides, the clinical evaluation scores entry in data set [5] (8.5 mg/kg every 12 hrs for 5 days, FIG. 4) is “higher clinical evaluation scores and greater improvement post-infection”. For the same molecule, the “weight over the trial period vs control calf” value in data set [5] (8.5 mg/kg every 12 hrs for 5 days, FIG. 6) is recorded as “maintained their weight”. In data set [5] (8.5 mg/kg every 12 hrs for 5 days, days 4-7 post infection, FIG. 5), the “fecal consistency score vs control calves” value is reported as “lower fecal consistency score”. In addition, the “urine output vs control calves” value in data set [5] (8.5 mg/kg every 12 hrs for 5 days, except on day 4 post-infection, FIG. 3) was “Greater urine output”. The “MCLint (mL/min/g liver), MLM” value in data set [6] is on record as “MLM = 3.3 mL/min/g liver”.

Values taken from US11083717B2, “Compositions and methods for drug sensitization of parasites” (The Texas A&M University System, priority 2015, dated 2021).
